Our source for the MIC values is ChEMBL document CHEMBL3611970, “Synthesis and evaluation of isatin-β-thiosemicarbazones as novel agents against antibiotic-resistant Gram-positive bacterial species” (2015).

Each structure is given as a SMILES string. ≈ marks a conversion by molar mass, not a printed value.

What all share (format): functional
For assay [1], the system named is Staphylococcus aureus. As to the kind of experiment: Antimicrobial activity against methicillin-resistant Staphylococcus aureus Chaoyang clinical isolate after 16 hrs by broth microdilution method. In general terms: In broth dilution the organism is exposed to a series of concentrations in liquid medium.
Assay [2] deals with Staphylococcus aureus. Put plainly: Antimicrobial activity against Staphylococcus aureus ATCC 6538 after 16 hrs by broth microdilution method. Conditions: ATCC 6538, 16 h.
The subject of a further assay is Bacillus spizizenii. As to the kind of experiment: Antimicrobial activity against Bacillus subtilis ATCC 6633 after 16 hrs by broth microdilution method. Conditions: ATCC 6633, 16 h.
Assay [3] concerns Enterococcus faecalis. Put plainly: Antimicrobial activity against vancomycin-susceptible Enterococcus faecalis after 16 hrs by broth microdilution method.
For assay [4], the system named is Enterococcus faecalis. As to the kind of experiment: Antimicrobial activity against Enterococcus faecalis VRE-309 after 16 hrs by broth microdilution method. Conditions: VRE-309, 16 h.
A further assay relates to Pseudomonas aeruginosa. Put plainly: Antimicrobial activity against Pseudomonas aeruginosa PAO1 after 16 hrs by broth microdilution method. Conditions: PAO1, 16 h.
For another assay, the system named is Klebsiella pneumoniae. As to the kind of experiment: Antimicrobial activity against Klebsiella pneumoniae KP-249 clinical isolate after 16 hrs by broth microdilution method. Conditions: KP-249, 16 h.
For assay [5], the system named is Staphylococcus aureus. As to the kind of experiment: Antimicrobial activity against methicillin-resistant Staphylococcus aureus 309-4 clinical isolate after 16 hrs by broth microdilution method. Conditions: 309-4, 16 h.
The test system of assay [6] is Staphylococcus aureus. Put plainly: Antimicrobial activity against methicillin-resistant Staphylococcus aureus 6281 clinical isolate after 16 hrs by broth microdilution method. Conditions: Staphylococcus aureus, 6281, 16 h.
The test system of assay [7] is Staphylococcus aureus. As to the kind of experiment: Antimicrobial activity against methicillin-resistant Staphylococcus aureus 309-8 clinical isolate after 16 hrs by broth microdilution method. Conditions: 309-8, 16 h.
Assay [8] has as its system Staphylococcus aureus. As to the kind of experiment: Antimicrobial activity against methicillin-resistant Staphylococcus aureus 6-42 clinical isolate after 16 hrs by broth microdilution method. Conditions: 6-42, 16 h.
Assay [9] has as its system Staphylococcus aureus. Put plainly: Antimicrobial activity against methicillin-resistant Staphylococcus aureus 8-21 clinical isolate after 16 hrs by broth microdilution method. Conditions: 8-21, 16 h.
The test system of assay [10] is Staphylococcus aureus. Put plainly: Antimicrobial activity against methicillin-resistant Staphylococcus aureus 309-3 clinical isolate after 16 hrs by broth microdilution method. Conditions: 309-3, 16 h.
In assay [11] the test system is Staphylococcus aureus. As to the kind of experiment: Antimicrobial activity against methicillin-resistant Staphylococcus aureus 309-1 clinical isolate after 16 hrs by broth microdilution method. Conditions: 309-1, 16 h.
In assay [12] the test system is Staphylococcus aureus. Put plainly: Antimicrobial activity against methicillin-resistant Staphylococcus aureus 309-7 clinical isolate after 16 hrs by broth microdilution method. Conditions: 309-7, 16 h.
The subject of assay [13] is Staphylococcus aureus. As to the kind of experiment: Antimicrobial activity against methicillin-resistant Staphylococcus aureus 8-24 clinical isolate after 16 hrs by broth microdilution method. Conditions: 8-24, 16 h.
For assay [14], the system named is Staphylococcus aureus. As to the kind of experiment: Antimicrobial activity against methicillin-resistant Staphylococcus aureus 309-6 clinical isolate after 16 hrs by broth microdilution method. Conditions: 309-6, 16 h.

Turning to `Cc1cccc(NC(=S)N/N=C2\C(=O)Nc3c(F)cccc32)c1`, the MIC is 0.39 µg/mL (≈ 1.19 µM) in the assay on Staphylococcus aureus [1]; 1.56 µg/mL (≈ 4.75 µM) in the assay on Staphylococcus aureus [2]; not above 0.78 µg/mL with Bacillus spizizenii; 3.12 µg/mL (≈ 9.5 µM) with Enterococcus faecalis [3]; 3.12 µg/mL (≈ 9.5 µM) against Enterococcus faecalis [4]; more than 100 µg/mL against Pseudomonas aeruginosa. Moreover, the minimal inhibitory concentration (MIC) was more than 100 µg/mL with Klebsiella pneumoniae; 0.78 µg/mL (≈ 2.38 µM) with Staphylococcus aureus [5]; 1.56 µg/mL (≈ 4.75 µM) in the assay with Staphylococcus aureus [6]; 0.78 µg/mL (≈ 2.38 µM) against Staphylococcus aureus [7]; 0.78 µg/mL (≈ 2.38 µM) in the assay with Staphylococcus aureus [8]; 0.78 µg/mL (≈ 2.38 µM) with Staphylococcus aureus [9]. Besides, the MIC with Staphylococcus aureus [10] was found to be 0.78 µg/mL (≈ 2.38 µM); against Staphylococcus aureus [11], 0.78 µg/mL (≈ 2.38 µM); in the assay on Staphylococcus aureus [12] it was 0.78 µg/mL (≈ 2.38 µM); with Staphylococcus aureus [13], 1.56 µg/mL (≈ 4.75 µM); against Staphylococcus aureus [14], 1.56 µg/mL (≈ 4.75 µM).

`COc1cccc(NC(=S)N/N=C2\C(=O)Nc3c(F)cccc32)c1`: the minimal inhibitory concentration (MIC) in the assay with Staphylococcus aureus [1] is 1.56 µg/mL (≈ 4.53 µM); against Staphylococcus aureus [2] it was 3.12 µg/mL (≈ 9.06 µM); with Bacillus spizizenii it was 1.56 µg/mL (≈ 4.53 µM); against Enterococcus faecalis [3], more than 100 µg/mL; in the assay on Enterococcus faecalis [4], more than 100 µg/mL; with Pseudomonas aeruginosa it was more than 100 µg/mL. The minimal inhibitory concentration (MIC) against Klebsiella pneumoniae was more than 100 µg/mL; with Staphylococcus aureus [5], 1.56 µg/mL (≈ 4.53 µM); with Staphylococcus aureus [6], 3.12 µg/mL (≈ 9.06 µM); in the assay with Staphylococcus aureus [7] it was 1.56 µg/mL (≈ 4.53 µM); against Staphylococcus aureus [8], 1.56 µg/mL (≈ 4.53 µM); in the assay with Staphylococcus aureus [9], 1.56 µg/mL (≈ 4.53 µM). The MIC in the assay on Staphylococcus aureus [10] was found to be 1.56 µg/mL (≈ 4.53 µM); with Staphylococcus aureus [11], 1.56 µg/mL (≈ 4.53 µM); in the assay on Staphylococcus aureus [12] it was 1.56 µg/mL (≈ 4.53 µM); against Staphylococcus aureus [13] it was 3.12 µg/mL (≈ 9.06 µM); against Staphylococcus aureus [14] it was 3.12 µg/mL (≈ 9.06 µM).

In the case of `Cc1ccc(NC(=S)N/N=C2\C(=O)Nc3c(Br)cccc32)cc1`, the MIC in the assay on Staphylococcus aureus [1] was 0.39 µg/mL (≈ 1 µM); in the assay with Staphylococcus aureus [2], 1.56 µg/mL (≈ 4.01 µM); against Bacillus spizizenii, not above 0.78 µg/mL; in the assay with Enterococcus faecalis [3], more than 100 µg/mL; with Enterococcus faecalis [4] it was more than 100 µg/mL; in the assay with Pseudomonas aeruginosa, more than 100 µg/mL. The MIC was more than 100 µg/mL against Klebsiella pneumoniae; 0.78 µg/mL (≈ 2 µM) in the assay with Staphylococcus aureus [5]; 3.12 µg/mL (≈ 8.01 µM) with Staphylococcus aureus [6]; 0.78 µg/mL (≈ 2 µM) against Staphylococcus aureus [7]; 0.78 µg/mL (≈ 2 µM) against Staphylococcus aureus [8]; 0.78 µg/mL (≈ 2 µM) in the assay on Staphylococcus aureus [9]. The MIC is 0.78 µg/mL (≈ 2 µM) against Staphylococcus aureus [10]; 0.78 µg/mL (≈ 2 µM) with Staphylococcus aureus [11]; 0.78 µg/mL (≈ 2 µM) with Staphylococcus aureus [12]; 1.56 µg/mL (≈ 4.01 µM) with Staphylococcus aureus [13]; 1.56 µg/mL (≈ 4.01 µM) in the assay on Staphylococcus aureus [14].

For `Cc1ccccc1NC(=S)N/N=C1\C(=O)Nc2c(Br)cccc21`, the MIC was 0.78 µg/mL (≈ 2 µM) in the assay on Staphylococcus aureus [1]; 1.56 µg/mL (≈ 4.01 µM) in the assay with Staphylococcus aureus [2]; not above 0.78 µg/mL in the assay with Bacillus spizizenii; 12.5 µg/mL (≈ 32.1 µM) against Enterococcus faecalis [3]; 6.25 µg/mL (≈ 16.1 µM) against Enterococcus faecalis [4]; more than 100 µg/mL with Pseudomonas aeruginosa. Besides, the MIC against Klebsiella pneumoniae was more than 100 µg/mL; against Staphylococcus aureus [5], 1.56 µg/mL (≈ 4.01 µM); in the assay on Staphylococcus aureus [6], 3.12 µg/mL (≈ 8.01 µM); in the assay with Staphylococcus aureus [7], 1.56 µg/mL (≈ 4.01 µM); against Staphylococcus aureus [8] it was 0.78 µg/mL (≈ 2 µM); with Staphylococcus aureus [9], 1.56 µg/mL (≈ 4.01 µM). Moreover, the MIC in the assay on Staphylococcus aureus [10] was determined as 1.56 µg/mL (≈ 4.01 µM); with Staphylococcus aureus [11], 1.56 µg/mL (≈ 4.01 µM); in the assay on Staphylococcus aureus [12] it was 0.78 µg/mL (≈ 2 µM); in the assay on Staphylococcus aureus [13], 1.56 µg/mL (≈ 4.01 µM); in the assay on Staphylococcus aureus [14], 1.56 µg/mL (≈ 4.01 µM).

As for `COc1cccc(NC(=S)N/N=C2\C(=O)Nc3c(Br)cccc32)c1`, the minimal inhibitory concentration (MIC) against Staphylococcus aureus [1] was 0.78 µg/mL (≈ 1.92 µM); in the assay on Staphylococcus aureus [2] it was 6.25 µg/mL (≈ 15.4 µM); against Bacillus spizizenii, not above 0.78 µg/mL; in the assay on Enterococcus faecalis [3], more than 100 µg/mL; with Enterococcus faecalis [4], more than 100 µg/mL; in the assay with Pseudomonas aeruginosa, more than 100 µg/mL. Besides, the MIC is more than 100 µg/mL against Klebsiella pneumoniae; 1.56 µg/mL (≈ 3.85 µM) against Staphylococcus aureus [5]; 6.25 µg/mL (≈ 15.4 µM) in the assay with Staphylococcus aureus [6]; 3.12 µg/mL (≈ 7.7 µM) against Staphylococcus aureus [7]; 1.56 µg/mL (≈ 3.85 µM) against Staphylococcus aureus [8]; 1.56 µg/mL (≈ 3.85 µM) against Staphylococcus aureus [9]. Further, the MIC in the assay on Staphylococcus aureus [10] was 3.12 µg/mL (≈ 7.7 µM); with Staphylococcus aureus [11], 1.56 µg/mL (≈ 3.85 µM); in the assay with Staphylococcus aureus [12], 0.78 µg/mL (≈ 1.92 µM); in the assay on Staphylococcus aureus [13] it was 1.56 µg/mL (≈ 3.85 µM); with Staphylococcus aureus [14], 6.25 µg/mL (≈ 15.4 µM).

Regarding `O=C1Nc2c(Cl)cccc2/C1=N/NC(=S)Nc1cccc(Cl)c1`, the MIC against Staphylococcus aureus [1] is 0.78 µg/mL (≈ 2.14 µM); against Staphylococcus aureus [2], 1.56 µg/mL (≈ 4.27 µM); in the assay with Bacillus spizizenii, not above 0.78 µg/mL; in the assay on Enterococcus faecalis [3] it was 3.12 µg/mL (≈ 8.54 µM); against Enterococcus faecalis [4], 1.56 µg/mL (≈ 4.27 µM); against Pseudomonas aeruginosa, more than 100 µg/mL. Besides, the MIC is more than 100 µg/mL in the assay on Klebsiella pneumoniae; 0.78 µg/mL (≈ 2.14 µM) in the assay with Staphylococcus aureus [5]; 1.56 µg/mL (≈ 4.27 µM) in the assay with Staphylococcus aureus [6]; 1.56 µg/mL (≈ 4.27 µM) in the assay on Staphylococcus aureus [7]; 0.78 µg/mL (≈ 2.14 µM) in the assay on Staphylococcus aureus [8]; 1.56 µg/mL (≈ 4.27 µM) against Staphylococcus aureus [9]. Further, the MIC amounted to 1.56 µg/mL (≈ 4.27 µM) in the assay with Staphylococcus aureus [10]; 1.56 µg/mL (≈ 4.27 µM) against Staphylococcus aureus [11]; 0.78 µg/mL (≈ 2.14 µM) with Staphylococcus aureus [12]; 1.56 µg/mL (≈ 4.27 µM) in the assay with Staphylococcus aureus [13]; 3.12 µg/mL (≈ 8.54 µM) against Staphylococcus aureus [14].

A word on the MIC: it is the lowest concentration that inhibits growth of the organism. Low readings indicate inhibition by little substance, high ones a need for much substance.
